Assay results published in patent publication US4929751A, “Vinyl tricarbonyl compounds and methods of making the same” (Yale University, priority 1987, dated 1990).
Like-named read-outs stand apart in the source and are kept apart here.

Columns and labels:
Format in all cases: cell-based
CCRF-CEM (leukemia) = test: growth inhibition of tumor cell line; settings: Homo sapiens
Text: (§1) t-Butyl 2,3-dioxo-pent-4-enoate hydrate (A) was contacted with various cell lines as indicated on Table 1 hereinbelow in the column designated as "CELL" or "TUMOR". […]
(§2) Table 1 reports and illustrates the results obtained by testing t-butyl 2,3-dioxo-pent-4-enoate hydrate. The concentration of this compound found to inhibit the growth of each cell line listed under "CELL" by 50% is reported under "LOG(IC50)" as the logarithm of the concentration. The units of concentration are either molarity in which case an "M" is shown in parentheses next to the LOG(IC50) label, or micrograms per ml, in which case a "W" (for weight) is shown in parenthesis. The cell line names are grouped by disease type and the disease type names are listed on the far left.

[1] = tested on: H125 (nonsmall cell lung cancer); test: growth inhibition of tumor cell line; settings: Homo sapiens, NCI-H125
Text: as §1, §2

LOVO (colon) = test: growth inhibition of tumor cell line; settings: Homo sapiens
Text: as §1, §2

OVCAR-3 (ovarian) = test: growth inhibition of tumor cell line; settings: Homo sapiens
Text: as §1, §2

RPMI-7951 (melanoma) = test: growth inhibition of tumor cell line; settings: Homo sapiens
Text: as §1, §2

SK-MEL2 (melanoma) = test: growth inhibition of tumor cell line; settings: Homo sapiens
Text: as §1, §2

OVCAR-5 (ovarian) = test: growth inhibition of tumor cell line; settings: for IC50: Homo sapiens, OVCAR-5
Text: as §1
(§3) As described below, the data in Table 1 serve to display the testing results on disease category selectivity in a bar graph format. Bars projecting to the right of the reference (vertical line of asterisks) indicate greater than average sensitivity to the test compound. Each bar represents one power of ten in sensitivity, so that the results for OVCAR-5 (ovarian tumor) indicate a remarkable […] increase in sensitivity over the reference test.
as §2

tumor cells = test: growth inhibition of tumor cells, whole panel (mean graph)
Text: as §1, §2
(§4) The graph on the right depicts the data on the left in a format called a "MEAN GRAPH" which is designed to aid in the identification of differential growth inhibition. […] The interest in using this concept of differential growth inhibition as a criterion of activity in the screening system is to encourage the discovery of new types of anticancer agents having greater tissue specificity than cancer chemotherapeutic agents in use today.
(§5) The idea for the Mean Graph resulted from trying to detect differential growth inhibition in a bar graph format Experimentation led to a graph centered at the arithmetic mean (ML) of the logarithm of the IC50'a of all the cell line responses measured for a compound. The Mean Graph is constructed around a vertical reference (indicating ML) by projecting bars to the right or to the left. […] The lengths of the bars are proportional to the differences between the logarithms of the specific cell line IC50's and the overall mean value ML. These lengths represent differences in logarithms which are equivalent to the ratios of the specific IC50's to the geometric mean of all the IC50's. Therefore, a useful property of the Mean Graph format is the ability to compare patterns derived from IC50's measured in different units, e.g, micrograms per ml and molarity. The units cancel in the division process.
(§6) Differential growth inhibition is depicted as a bar projecting some distance to the right of ML. A bar projecting three log units to the right of ML, for example, would reflect a cellular sensitivity 1000 times greater than ML. While any degree of sensitivity greater than ML might theoretically be considered differential growth inhibition, in practice one must consider the experimental error in the measurement and at what point the degree of differential growth inhibition becomes meaningful in biological terms. The three values listed a the bottom of the graph provide the value of ML as "AVE LOG(IC50)", the greatest difference from ML as "DELTA" and the difference between the least sensitive cell line and the most sensitive cell line as the "RANGE".

PS cell lines = test: disease category selectivity
Text: as §3, §2, §4, §5, §6

[2] = tested on: RESISTL (resistant lung cancer) cell lines; test: disease category selectivity
Text: as §3, §2, §4, §5, §6

breast cell lines = test: disease category selectivity
Text: as §3, §2, §4, §5, §6

[3] = tested on: central nervous system cell lines; test: disease category selectivity; settings: CNS
Text: as §3, §2, §4, §5, §6

colon cell lines = test: disease category selectivity
Text: as §3, §2, §4, §5, §6

leukemia cell lines = test: disease category selectivity; settings: LEUK
Text: as §3, §2, §4, §5, §6

melanoma cell lines = test: disease category selectivity; settings: MEL
Text: as §3, §2, §4, §5, §6

[4] = tested on: nonsmall cell lung cancer cell lines; test: disease category selectivity; settings: NSCLC
Text: as §3, §2, §4, §5, §6

ovarian cell lines = test: disease category selectivity
Text: as §3, §2, §4, §5, §6

renal cell lines = test: disease category selectivity
Text: as §3, §2, §4, §5, §6

[5] = tested on: resistant breast cancer cell lines; test: disease category selectivity; settings: RESISTB
Text: as §3, §2, §4, §5, §6

[6] = tested on: small cell lung cancer cell lines; test: disease category selectivity; settings: SCLC
Text: as §3, §2, §4, §5, §6

[7] = logarithm of the concentration inhibiting growth by 50%, read-out: LOG(IC50) (converted)
[8] = mean LOG(IC50) of category, 1 cell line, read-out: MEAN CAT (converted)
[9] = mean LOG(IC50) of category, 4 cell lines, read-out: MEAN CAT (converted)
[10] = mean LOG(IC50) of category, 5 cell lines, read-out: MEAN CAT (converted)

IC50 (CCRF-CEM (leukemia); CCRF-CE, logarithm of the concentration inhibiting growth by 50%, read-out: LOG(IC50) (converted)): 7.94 µM
IC50 (CCRF-CEM (leukemia); read-out: IC-50 MEAN): 8.05 µM
IC50 ([1]; H125, logarithm of the concentration inhibiting growth by 50%, read-out: LOG(IC50) (converted)): 50.1 µM
IC50 ([1]; read-out: IC-50 MEAN): 73.3 µM
IC90 (LOVO (colon); LoVo): 262 µM
IC50 (LOVO (colon); LoVo, read-out: IC-50 MEAN): 96.6 µM
IC50 (LOVO (colon); LOVO, logarithm of the concentration inhibiting growth by 50%, read-out: LOG(IC50) (converted)): 100 µM
IC90 (OVCAR-3 (ovarian)): 270 µM
IC50 (OVCAR-3 (ovarian); [7]): 100 µM
IC50 (OVCAR-3 (ovarian); read-out: IC-50 MEAN): 96.6 µM
IC90 (RPMI-7951 (melanoma)): 178 µM
IC50 (RPMI-7951 (melanoma); RPMI-79, logarithm of the concentration inhibiting growth by 50%, read-out: LOG(IC50) (converted)): 79.4 µM
IC50 (RPMI-7951 (melanoma); read-out: IC-50 MEAN): 76.7 µM
IC90 (SK-MEL2 (melanoma); SK-MEL-2): 174 µM
IC50 (SK-MEL2 (melanoma); SK-MEL-2, logarithm of the concentration inhibiting growth by 50%, read-out: LOG(IC50) (converted)): 79.4 µM
IC50 (SK-MEL2 (melanoma); SK-MEL-2, read-out: IC-50 MEAN): 73.5 µM
IC50 (OVCAR-5 (ovarian); read-out: IC-50 MEAN): 2.01 µM
IC50 (OVCAR-5 (ovarian); [7]): 1.26 µM
IC50 (tumor cells; mean over the cell lines, read-out: IC-50 MEAN, NSC MEAN): 79.1 µM
IC50 (tumor cells; total cell lines used = 42, read-out: MEAN OF ALL LOGIC50'S (converted)): 100 µM
IC50 (PS cell lines; [8]): 100 µM
IC50 [2, 8]: 126 µM
IC50 (breast cell lines; [8]): 100 µM
IC50 [3, 9]: 100 µM
IC50 (colon cell lines; [9]): 63.1 µM
IC50 (leukemia cell lines; mean LOG(IC50) of category, 2 cell lines, read-out: MEAN CAT (converted)): 31.6 µM
IC50 (melanoma cell lines; [10]): 79.4 µM
IC50 ([4]; mean LOG(IC50) of category, 10 cell lines, read-out: MEAN CAT (converted)): 79.4 µM
IC50 (ovarian cell lines; [10]): 50.1 µM
IC50 (renal cell lines; mean LOG(IC50) of category, 3 cell lines, read-out: MEAN CAT (converted)): 79.4 µM
IC50 [5, 8]: 100 µM
IC50 [6, 10]: 79.4 µM
SMILES: C=CC(=O)C(O)(O)C(=O)OC(C)(C)C [t-butyl 2,3-dioxo-pent-4-enoate hydrate]
effectiveness against ovarian cell line OVCAR-5 (OVCAR-5 (ovarian); in words): particularly effective
IC50 (tumor cells; arithmetic mean of the logarithm of the IC50 of all cell lines, read-out: AV TC50 (AVE LOG(IC50), ML) (converted)): 74.1 µM
RANGE (tumor cells; difference between least and most sensitive cell line, log units): 2.3
DELTA (tumor cells; greatest difference from ML, log units): 1.8
DIFF CAT (PS cell lines; difference from mean): 0.1
DIFF CAT ([2]; difference from mean): 0.2
DIFF CAT (breast cell lines; difference from mean): 0.1
DIFF CAT ([3]; difference from mean): 0.2
DIFF CAT (colon cell lines; difference from mean): -0.1
DIFF CAT (leukemia cell lines; difference from mean): -0.4
DIFF CAT (melanoma cell lines; difference from mean): 0
DIFF CAT ([4]; difference from mean): 0
DIFF CAT (ovarian cell lines; difference from mean): -0.2
DIFF CAT (renal cell lines; difference from mean): 0.1
DIFF CAT ([5]; difference from mean): 0.1
DIFF CAT ([6]; difference from mean): 0
